{"source": "paper PMC8390552", "about": "“Helix 12 stabilization contributes to basal transcriptional activity of PXR” (The Journal of Biological Chemistry, 2021)", "key": {"WT PXR": {"target": "T1, WT PXR (Homo sapiens, UniProt O75469)", "T1 sequence (O75469 1-434)": "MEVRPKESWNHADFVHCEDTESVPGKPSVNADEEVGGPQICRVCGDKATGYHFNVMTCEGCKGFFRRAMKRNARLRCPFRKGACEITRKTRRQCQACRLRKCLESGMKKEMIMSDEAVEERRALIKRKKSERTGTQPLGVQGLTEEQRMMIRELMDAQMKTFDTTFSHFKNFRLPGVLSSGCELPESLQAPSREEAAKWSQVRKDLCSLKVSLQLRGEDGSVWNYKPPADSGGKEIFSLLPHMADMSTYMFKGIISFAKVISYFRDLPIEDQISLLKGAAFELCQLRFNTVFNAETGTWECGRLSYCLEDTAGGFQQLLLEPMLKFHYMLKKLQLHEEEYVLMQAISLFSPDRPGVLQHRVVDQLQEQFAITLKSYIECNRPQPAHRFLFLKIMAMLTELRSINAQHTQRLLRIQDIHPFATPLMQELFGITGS", "experiment": "Reporter gene assay (p3A4-pGL3, CYP3A4 promoter) in COS-1 cells expressing WT PXR", "details": "1 μM ligand, without PGC1α (Fig. S7)", "description": "(§1) COS-1 cells were cultured in Dulbecco's Modified Eagle medium (DMEM, Fujifilm Wako Pure Chemical) supplemented with 10% fetal bovine serum (FBS, GE Healthcare), MEM nonessential amino acids, and antibiotic-antimycotic (Thermo Fisher Scientific). Twenty-four hours after seeding, the culture medium was replaced with prewarmed DMEM without FBS, and plasmids were transfected with Lipofectamine 3000 (Thermo Fisher Scientific) according to the manufacturer’s instructions.\n(§2) Firefly luciferase luminescence was normalized to Renilla luciferase luminescence."}, "PXR-F420A": {"target": "T2, PXR-F420A (Homo sapiens, UniProt O75469, F420A)", "T2 sequence (O75469 1-434 F420A)": "T1 sequence (O75469 1-434) with F420A", "experiment": "Reporter gene assay (p3A4-pGL3, CYP3A4 promoter) in COS-1 cells expressing PXR-F420A", "details": "1 μM ligand, without PGC1α (Fig. S7)", "description": "as §1, §2"}}, "note": "Numbering of substitutions follows the chain as printed."}
{"smiles": "Clc1ccccc1C(c1ccccc1)(c1ccccc1)n1ccnc1", "note": "[clotrimazole, Clotrimazole]", "values": [{"measurement": "Induction of reporter activity, WT PXR", "setting": "WT PXR", "value": "weak induction"}, {"measurement": "Induction of reporter activity, PXR-F420A", "setting": "PXR-F420A", "value": "but not for PXR-F420A"}]}
